Measured values taken from ChEMBL document CHEMBL1201861, “Genomics of Drug Sensitity in Cancer screening data, Wellcome Trust Sanger Institute”.

Legend:
Format in all cases: functional, cell-based
SUP-T1 = assay: cells; conditions: Homo sapiens;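 note: growth inhibition of human SUP-T1 cells, read out as cell viability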
Description: SANGER: Inhibition of human SUP-T1 cell growth in a cell viability assay.

IM-9 = assay: SANGER: Inhibition of human IM-9 cell growth in a cell viability assay.
RPMI-7951 = assay: cells; conditions: Homo sapiens
Description: SANGER: Inhibition of human RPMI-7951 cell growth in a cell viability assay.

CAL-85-1 = assay: cells; conditions: Homo sapiens;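 note: growth inhibition of human CAL-85-1 cells, read out with a cell viability assay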
Description: SANGER: Inhibition of human CAL-85-1 cell growth in a cell viability assay.

UO-31 = assay: cells; conditions: Homo sapiens
Description: SANGER: Inhibition of human U031 cell growth in a cell viability assay.

RPMI-6666 = assay: cells; conditions: Homo sapiens
Description: SANGER: Inhibition of human RPMI-6666 cell growth in a cell viability assay.

NCI-H1963 = assay: cells; conditions: Homo sapiens;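 note: cell growth inhibition of the human line, determined with a cell viability assay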
Description: SANGER: Inhibition of human NCI-H1963 cell growth in a cell viability assay.

EHEB = assay: cells; conditions: Homo sapiens;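 note: growth inhibition of human EHEB cells, read out with a cell viability assay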
Description: SANGER: Inhibition of human EHEB cell growth in a cell viability assay.

C32 = assay: cells; conditions: Homo sapiens;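 note: cell viability assay, with IC50 reflecting inhibition of C32 cell growth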
Description: SANGER: Inhibition of human C32 cell growth in a cell viability assay.

NCI-H2081 = assay: cells; conditions: Homo sapiens;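 note: growth inhibition of human NCI-H2081 cells, read out with a cell viability assay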
Description: SANGER: Inhibition of human NCI-H2081 cell growth in a cell viability assay.

VMRC-RCZ = assay: cells; conditions: Homo sapiens
Description: SANGER: Inhibition of human VMRC-RCZ cell growth in a cell viability assay.

YAPC = assay: cells; conditions: Homo sapiens;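 note: growth inhibition of YAPC cells, measured with a cell viability assay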
Description: SANGER: Inhibition of human YAPC cell growth in a cell viability assay.

WSU-NHL = assay: cells; conditions: Homo sapiens;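 note: growth inhibition of human WSU-NHL cells, read out with a cell viability assay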
Description: SANGER: Inhibition of human WSU-NHL cell growth in a cell viability assay.

RERF-LC-MS = assay: cells; conditions: Homo sapiens;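 note: growth inhibition of human RERF-LC-MS cells, read out by a cell viability assay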
Description: SANGER: Inhibition of human RERF-LC-MS cell growth in a cell viability assay.

THP-1 = assay: cells; conditions: Homo sapiens;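 note: growth inhibition of THP-1 cells, read out via a cell viability assay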
Description: SANGER: Inhibition of human THP-1 cell growth in a cell viability assay.

T84 = assay: cells; conditions: Homo sapiens;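 note: growth inhibition measured with a cell viability readout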
Description: SANGER: Inhibition of human T84 cell growth in a cell viability assay.

TYK-nu = assay: cells; conditions: Homo sapiens;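 note: growth inhibition of human TYK-nu cells, read out by a cell viability assay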
Description: SANGER: Inhibition of human TYK-nu cell growth in a cell viability assay.

OVCAR-8 = assay: cells; conditions: Homo sapiens;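 note: growth inhibition of human OVCAR-8 cells, read out by a cell viability assay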
Description: SANGER: Inhibition of human OVCAR-8 cell growth in a cell viability assay.

NCI-H1993 = assay: cells; conditions: Homo sapiens;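 note: growth inhibition of the cancer cell line, assessed with a cell viability assay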
Description: SANGER: Inhibition of human NCI-H1993 cell growth in a cell viability assay.

CP50-MEL-B = assay: cells; conditions: Homo sapiens;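 note: growth inhibition of the human cell line, measured with a cell viability read-out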
Description: SANGER: Inhibition of human CP50-MEL-B cell growth in a cell viability assay.

SK-N-AS = assay: cells; conditions: Homo sapiens;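 note: growth inhibition of human SK-N-AS cells, measured with a cell viability assay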
Description: SANGER: Inhibition of human SK-N-AS cell growth in a cell viability assay.

D-542MG = assay: cells; conditions: Homo sapiens
Description: SANGER: Inhibition of human D-542MG cell growth in a cell viability assay.

NCI-H889 = assay: cells; conditions: Homo sapiens;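 note: cell growth inhibition of the cell line, read out with a viability assay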
Description: SANGER: Inhibition of human NCI-H889 cell growth in a cell viability assay.

HT-3 = assay: cells; conditions: Homo sapiens;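 note: growth inhibition measured with a cell viability readout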
Description: SANGER: Inhibition of human HT-3 cell growth in a cell viability assay.

CAL-51 = assay: cells; conditions: Homo sapiens;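 note: human CAL-51 cell line, growth inhibition read out via a cell viability assay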
Description: SANGER: Inhibition of human CAL-51 cell growth in a cell viability assay.

SK-MEL-24 = assay: cells; conditions: Homo sapiens;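 note: growth inhibition read out by a cell viability assay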
Description: SANGER: Inhibition of human SK-MEL-24 cell growth in a cell viability assay.

KYSE-450 = assay: cells; conditions: Homo sapiens;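 note: cell growth inhibition measured by a viability assay in human KYSE-450 cells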
Description: SANGER: Inhibition of human KYSE-450 cell growth in a cell viability assay.

EFM-19 = assay: cells; conditions: Homo sapiens;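 note: growth inhibition of human EFM-19 cells, measured in a cell viability assay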
Description: SANGER: Inhibition of human EFM-19 cell growth in a cell viability assay.

BC-3 = assay: cells; conditions: Homo sapiens;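 note: cell viability assay measuring growth inhibition of human BC-3 cells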
Description: SANGER: Inhibition of human BC-3 cell growth in a cell viability assay.

COLO-679 = assay: cells; conditions: Homo sapiens
Description: SANGER: Inhibition of human COLO-679 cell growth in a cell viability assay.

KP-4 = assay: cells; conditions: Homo sapiens;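 note: human KP-4 cells, with growth inhibition read out through a cell viability assay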
Description: SANGER: Inhibition of human KP-4 cell growth in a cell viability assay.

CaR-1 = assay: cells; conditions: Homo sapiens;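 note: growth inhibition of human CaR-1 cancer cells, read out with a cell viability assay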
Description: SANGER: Inhibition of human CaR-1 cell growth in a cell viability assay.

K052 = assay: cells; conditions: Homo sapiens;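 note: Read-out from a cell viability assay, IC50 reflecting suppression of K052 cell growth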
Description: SANGER: Inhibition of human K052 cell growth in a cell viability assay.

AU565 = assay: cells; conditions: Homo sapiens;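 note: cell viability assay measuring growth inhibition of human AU565 cells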
Description: SANGER: Inhibition of human AU565 cell growth in a cell viability assay.

NCI-N87 = assay: cells; conditions: Homo sapiens;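 note: growth inhibition of human NCI-N87 cells, read out with a cell viability assay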
Description: SANGER: Inhibition of human NCI-N87 cell growth in a cell viability assay.

NCI-H524 = assay: cells; conditions: Homo sapiens;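 note: growth inhibition of human NCI-H524 cells, read out through a cell viability assay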
Description: SANGER: Inhibition of human NCI-H524 cell growth in a cell viability assay.

NCI-H2009 = assay: cells; conditions: Homo sapiens;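 note: cell viability assay measuring inhibition of NCI-H2009 cell growth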
Description: SANGER: Inhibition of human NCI-H2009 cell growth in a cell viability assay.

RMG-I = assay: cells; conditions: Homo sapiens;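 note: growth inhibition of human RMG-I cells, read out with a cell viability assay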
Description: SANGER: Inhibition of human RMG-I cell growth in a cell viability assay.

BFTC-909 = assay: cells; conditions: Homo sapiens
Description: SANGER: Inhibition of human BFTC-909 cell growth in a cell viability assay.

EB2 = assay: cells; conditions: Homo sapiens;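 note: growth inhibition of EB2 cells, read out with a cell viability assay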
Description: SANGER: Inhibition of human EB2 cell growth in a cell viability assay.

769-P = assay: cells; conditions: Homo sapiens
Description: SANGER: Inhibition of human 769-P cell growth in a cell viability assay.

PF-382 = assay: cells; conditions: Homo sapiens
Description: SANGER: Inhibition of human PF-382 cell growth in a cell viability assay.

Ca-Ski = assay: cells; conditions: Homo sapiens;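 note: cell viability assay measuring inhibition of Ca-Ski cell growth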
Description: SANGER: Inhibition of human Ca-Ski cell growth in a cell viability assay.

ECC4 = assay: cells; conditions: Homo sapiens;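 note: growth inhibition of ECC4 cells, read out with a cell viability assay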
Description: SANGER: Inhibition of human ECC4 cell growth in a cell viability assay.

JIYOYE = assay: cells; conditions: Homo sapiens
Description: SANGER: Inhibition of human JiyoyeP-2003 cell growth in a cell viability assay.

P12-Ichikawa = assay: cells; conditions: Homo sapiens
UACC-893 = assay: cells; conditions: Homo sapiens
Description: SANGER: Inhibition of human UACC-893 cell growth in a cell viability assay.

NCI-H748 = assay: cells; conditions: Homo sapiens;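 note: growth inhibition of NCI-H748 cells, measured by a cell viability assay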
Description: SANGER: Inhibition of human NCI-H748 cell growth in a cell viability assay.

AGS = assay: cells; conditions: Homo sapiens;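 note: growth inhibition of AGS cells, determined with a cell viability assay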
Description: SANGER: Inhibition of human AGS cell growth in a cell viability assay.

TGW = assay: cells; conditions: Homo sapiens;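 note: growth inhibition of human TGW cells, read out with a cell viability assay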
Description: SANGER: Inhibition of human TGW cell growth in a cell viability assay.

SW1463 = assay: cells; conditions: Homo sapiens;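 note: growth inhibition of SW1463 cells, determined with a cell viability assay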
Description: SANGER: Inhibition of human SW1463 cell growth in a cell viability assay.

LC4-1 = assay: cells; conditions: Homo sapiens;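 note: growth inhibition of LC4-1 cells, read out with a cell viability assay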
Description: SANGER: Inhibition of human LC4-1 cell growth in a cell viability assay.

EGI-1 = assay: cells; conditions: Homo sapiens;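 note: cell viability readout used to gauge growth inhibition of EGI-1 cells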
Description: SANGER: Inhibition of human EGI-1 cell growth in a cell viability assay.

UACC-812 = assay: cells; conditions: Homo sapiens
Description: SANGER: Inhibition of human UACC-812 cell growth in a cell viability assay.

KYSE-140 = assay: cells; conditions: Homo sapiens;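 note: cell viability assay measuring growth inhibition in human KYSE-140 cells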
Description: SANGER: Inhibition of human KYSE-140 cell growth in a cell viability assay.

NCI-H727 = assay: cells; conditions: Homo sapiens;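 note: growth inhibition of human NCI-H727 cells, read out with a cell viability assay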
Description: SANGER: Inhibition of human NCI-H727 cell growth in a cell viability assay.

U-251 = assay: cells; conditions: Homo sapiens;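 note: growth inhibition of human U-251 cells, read out through a cell viability assay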
Description: SANGER: Inhibition of human U251 cell growth in a cell viability assay.

NB1 = assay: cells; conditions: Homo sapiens;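 note: reduction of NB1 cell proliferation, read out with a viability assay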
Description: SANGER: Inhibition of human NB1 cell growth in a cell viability assay.

Detroit 562 = assay: cells; conditions: Homo sapiens;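 note: growth inhibition of human Detroit 562 cells, read out by a cell viability assay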
Description: SANGER: Inhibition of human Detroit562 cell growth in a cell viability assay.

HPAF-II = assay: cells; conditions: Homo sapiens;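 note: growth inhibition of HPAF-II cells, read out with a cell viability assay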
Description: SANGER: Inhibition of human HPAF-II cell growth in a cell viability assay.

T47D = assay: cells; conditions: Homo sapiens;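 note: growth inhibition of human T47D cells, measured with a cell viability assay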
Description: SANGER: Inhibition of human T47D cell growth in a cell viability assay.

M059J = assay: cells; conditions: Homo sapiens;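 note: growth inhibition of M059J cells, read out with a cell viability assay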
Description: SANGER: Inhibition of human M059J cell growth in a cell viability assay.

GDM-1 = assay: cells; conditions: Homo sapiens;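 note: cell viability readout used to measure growth inhibition of human GDM-1 cells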
Description: SANGER: Inhibition of human GDM-1 cell growth in a cell viability assay.

NCI-H2347 = assay: cells; conditions: Homo sapiens;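 note: growth inhibition of the cell line, read out with a cell viability assay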
Description: SANGER: Inhibition of human NCI-H2347 cell growth in a cell viability assay.

SW948 = assay: cells; conditions: Homo sapiens
Description: SANGER: Inhibition of human SW948 cell growth in a cell viability assay.

RVH-421 = assay: cells; conditions: Homo sapiens
Description: SANGER: Inhibition of human RVH-421 cell growth in a cell viability assay.

SMILES: C/C=C(/C)C(=O)O[C@H]1C(C)=C2[C@H]([C@@H]1OC(=O)CCCCCCC)[C@@](C)(OC(C)=O)C[C@H](OC(=O)CCC)[C@@]1(O)[C@H]2OC(=O)[C@@]1(C)O [THAPSIGARGIN]
- IC50 (SUP-T1): 54.7 nM
- IC50 (IM-9): > 512 nM
- IC50 (RPMI-7951): 3.98 nM
- IC50 (CAL-85-1): 6.03 nM
- IC50 (UO-31): 57.7 nM
- IC50 (RPMI-6666): 42.6 nM
- IC50 (NCI-H1963): 66.2 nM
- IC50 (EHEB): 94.1 nM
- IC50 (C32): 309 nM
- IC50 (NCI-H2081): > 512 nM
- IC50 (VMRC-RCZ): 11.2 nM
- IC50 (YAPC): 89.6 nM
- IC50 (WSU-NHL): 5.54 nM
- IC50 (RERF-LC-MS): 1.37 nM
- IC50 (THP-1): 11.4 nM
- IC50 (T84): 13.4 nM
- IC50 (TYK-nu): < 2 nM
- IC50 (OVCAR-8): 25 nM
- IC50 (NCI-H1993): > 512 nM
- IC50 (CP50-MEL-B): 11.1 nM
- IC50 (SK-N-AS): 48.5 nM
- IC50 (D-542MG): 6.93 nM
- IC50 (NCI-H889): > 512 nM
- IC50 (HT-3): 21.7 nM
- IC50 (CAL-51): 0.971 nM
- IC50 (SK-MEL-24): > 512 nM
- IC50 (KYSE-450): 0.777 nM
- IC50 (EFM-19): > 512 nM
- IC50 (BC-3): 4.51 nM
- IC50 (COLO-679): < 2 nM
- IC50 (KP-4): 2.64 nM
- IC50 (CaR-1): 8.62 nM
- IC50 (K052): 495 nM
- IC50 (AU565): 1.2 nM
- IC50 (NCI-N87): > 512 nM
- IC50 (NCI-H524): 70 nM
- IC50 (NCI-H2009): 1.63 nM
- IC50 (RMG-I): 13.3 nM
- IC50 (BFTC-909): 0.968 nM
- IC50 (EB2): 10.4 nM
- IC50 (769-P): 32.3 nM
- IC50 (PF-382): 25.9 nM
- IC50 (Ca-Ski): 32.2 nM
- IC50 (ECC4): > 512 nM
- IC50 (JIYOYE): 7.21 nM
- IC50 (P12-Ichikawa): 24.5 nM
- IC50 (UACC-893): 58.7 nM
- IC50 (NCI-H748): 31.3 nM
- IC50 (AGS): 8.78 nM
- IC50 (TGW): 4.73 nM
- IC50 (SW1463): > 512 nM
- IC50 (LC4-1): 42.3 nM
- IC50 (EGI-1): 21.7 nM
- IC50 (UACC-812): > 512 nM
- IC50 (KYSE-140): < 2 nM
- IC50 (NCI-H727): 8.36 nM
- IC50 (U-251): < 2 nM
- IC50 (NB1): 27.1 nM
- IC50 (Detroit 562): 2.52 nM
- IC50 (HPAF-II): 61.9 nM
- IC50 (T47D): > 512 nM
- IC50 (M059J): 10.8 nM
- IC50 (GDM-1): 230 nM
- IC50 (NCI-H2347): 10.2 nM
- IC50 (SW948): > 512 nM
- IC50 (RVH-421): 3.67 nM
